Assay results as given in patent US10870647B2, “Imidazopyridine derivative, method for preparing same, and pharmaceutical composition containing same as active ingredient for preventing or treating cancer” (DAEGU-GYEONGBUK MEDICAL INNOVATION FOUNDATION, priority 2016, dated 2020).
Where two headings read alike, the source gives them in different places.

Key:
Assay in all cases: Kinase selectivity, scanMAX Kinase assay panel (DiscoverX), % control at 1 uM
Format in all cases: binding
[1] = target: T1, scanMAX Kinase assay panel (Homo sapiens, UniProt P00519); settings: 1 uM, read-out: Percent Control (%)
T1 construct: purchased DiscoverX
Method in brief: (§1)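 Binding across the scanMAX kinase panel was tested at 1 uM compound. % control = (compound − positive control)/(negative control − positive control) × 100; below 35 counted as active.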

[2] = target: T2, scanMAX Kinase assay panel (Homo sapiens, UniProt P00533, G719C); settings: EGFR (G719C); 1 uM; read-out: Percent Control (%)
T2 construct: purchased DiscoverX
Method in brief: as §1

[3] = target: T3, scanMAX Kinase assay panel (Homo sapiens, UniProt P00533, L858R); settings: EGFR (L858R); 1 uM; read-out: Percent Control (%)
T3 construct: purchased DiscoverX
Method in brief: as §1

[4] = target: T4, scanMAX Kinase assay panel (Homo sapiens, UniProt P09769); settings: FGR; 1 uM; read-out: Percent Control (%)
T4 construct: purchased DiscoverX
Method in brief: as §1

[5] = target: T5, scanMAX Kinase assay panel (Homo sapiens, UniProt P27037); settings: ACVR2A; 1 uM; read-out: Percent Control (%)
T5 construct: purchased DiscoverX
Method in brief: as §1

[6] = target: T6, scanMAX Kinase assay panel (Homo sapiens, UniProt P42685); settings: FRK; 1 uM; read-out: Percent Control (%)
T6 construct: purchased DiscoverX
Method in brief: as §1

[7] = target: T7, scanMAX Kinase assay panel (Homo sapiens, UniProt P45983); settings: JNK1; 1 uM; read-out: Percent Control (%)
T7 construct: purchased DiscoverX
Method in brief: as §1

[8] = target: T8, scanMAX Kinase assay panel (Homo sapiens, UniProt P46734); settings: MEK3; 1 uM; read-out: Percent Control (%)
T8 construct: purchased DiscoverX
T8 sequence (P46734 1-347): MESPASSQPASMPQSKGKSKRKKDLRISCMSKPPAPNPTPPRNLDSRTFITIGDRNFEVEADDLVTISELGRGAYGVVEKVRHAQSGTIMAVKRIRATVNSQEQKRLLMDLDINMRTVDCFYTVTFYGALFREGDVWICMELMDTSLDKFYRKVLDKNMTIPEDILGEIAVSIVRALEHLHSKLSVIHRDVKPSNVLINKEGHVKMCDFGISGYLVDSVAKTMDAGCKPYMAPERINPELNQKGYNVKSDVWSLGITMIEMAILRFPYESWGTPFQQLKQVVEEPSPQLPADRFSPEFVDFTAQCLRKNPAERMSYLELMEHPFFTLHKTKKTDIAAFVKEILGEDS
Method in brief: as §1

[9] = target: T9, scanMAX Kinase assay panel (Homo sapiens, UniProt P49759); settings: CLK1; 1 uM; read-out: Percent Control (%)
T9 construct: purchased DiscoverX
Method in brief: as §1

[10] = target: T10, scanMAX Kinase assay panel (Homo sapiens, UniProt P68400); settings: CSNK2A1; 1 uM; read-out: Percent Control (%)
T10 construct: purchased DiscoverX
Method in brief: as §1

[11] = target: T11, scanMAX Kinase assay panel (Homo sapiens, UniProt Q13163); settings: MEK5; 1 uM; read-out: Percent Control (%)
T11 construct: purchased DiscoverX
T11 sequence (Q13163 1-448): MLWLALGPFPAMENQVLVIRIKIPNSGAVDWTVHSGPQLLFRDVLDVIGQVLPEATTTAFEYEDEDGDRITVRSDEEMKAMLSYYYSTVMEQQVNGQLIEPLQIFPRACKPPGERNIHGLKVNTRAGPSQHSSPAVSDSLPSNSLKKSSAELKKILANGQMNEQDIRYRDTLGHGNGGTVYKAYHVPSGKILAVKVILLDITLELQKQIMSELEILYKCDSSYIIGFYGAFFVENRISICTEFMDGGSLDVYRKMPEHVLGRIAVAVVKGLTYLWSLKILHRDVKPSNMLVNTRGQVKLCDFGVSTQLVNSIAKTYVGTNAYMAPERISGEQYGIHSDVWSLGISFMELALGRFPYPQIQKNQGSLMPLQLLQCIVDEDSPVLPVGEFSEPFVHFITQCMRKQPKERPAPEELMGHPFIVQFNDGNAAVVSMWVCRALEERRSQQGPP
Method in brief: as §1

[12] = target: T12, scanMAX Kinase assay panel (Homo sapiens, UniProt Q16620); settings: TRKB; 1 uM; read-out: Percent Control (%)
T12 construct: purchased DiscoverX
Method in brief: as §1

[13] = target: T13, scanMAX Kinase assay panel (Homo sapiens, UniProt Q5S007); settings: LRRK2; 1 uM; read-out: Percent Control (%)
T13 construct: purchased DiscoverX
Method in brief: as §1

[14] = target: T14, scanMAX Kinase assay panel (Homo sapiens, UniProt Q9UK32); settings: 1 uM, read-out: Percent Control (%)
T14 construct: purchased DiscoverX
Method in brief: as §1

[15] = target: T15, scanMAX Kinase assay panel (Homo sapiens, UniProt Q9UPE1); settings: SRPK3; 1 uM; read-out: Percent Control (%)
T15 construct: purchased DiscoverX
Method in brief: as §1

T15 sequence (Q9UPE1 whole entry): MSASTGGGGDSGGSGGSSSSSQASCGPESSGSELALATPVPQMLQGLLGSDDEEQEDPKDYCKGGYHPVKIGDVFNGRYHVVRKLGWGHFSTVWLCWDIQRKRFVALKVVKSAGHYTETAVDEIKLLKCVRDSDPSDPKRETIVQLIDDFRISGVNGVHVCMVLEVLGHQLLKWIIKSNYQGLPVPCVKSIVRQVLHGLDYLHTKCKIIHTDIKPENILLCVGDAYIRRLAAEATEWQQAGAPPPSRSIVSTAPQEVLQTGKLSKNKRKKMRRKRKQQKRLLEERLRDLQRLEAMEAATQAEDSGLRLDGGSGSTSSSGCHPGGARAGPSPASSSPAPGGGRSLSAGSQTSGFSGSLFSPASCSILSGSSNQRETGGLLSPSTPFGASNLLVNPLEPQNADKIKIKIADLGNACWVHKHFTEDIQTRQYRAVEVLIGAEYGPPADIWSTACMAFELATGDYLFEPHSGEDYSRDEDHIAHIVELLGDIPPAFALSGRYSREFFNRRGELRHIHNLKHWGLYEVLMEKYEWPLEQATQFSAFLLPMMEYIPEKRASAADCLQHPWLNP
T4 sequence (P09769 whole entry): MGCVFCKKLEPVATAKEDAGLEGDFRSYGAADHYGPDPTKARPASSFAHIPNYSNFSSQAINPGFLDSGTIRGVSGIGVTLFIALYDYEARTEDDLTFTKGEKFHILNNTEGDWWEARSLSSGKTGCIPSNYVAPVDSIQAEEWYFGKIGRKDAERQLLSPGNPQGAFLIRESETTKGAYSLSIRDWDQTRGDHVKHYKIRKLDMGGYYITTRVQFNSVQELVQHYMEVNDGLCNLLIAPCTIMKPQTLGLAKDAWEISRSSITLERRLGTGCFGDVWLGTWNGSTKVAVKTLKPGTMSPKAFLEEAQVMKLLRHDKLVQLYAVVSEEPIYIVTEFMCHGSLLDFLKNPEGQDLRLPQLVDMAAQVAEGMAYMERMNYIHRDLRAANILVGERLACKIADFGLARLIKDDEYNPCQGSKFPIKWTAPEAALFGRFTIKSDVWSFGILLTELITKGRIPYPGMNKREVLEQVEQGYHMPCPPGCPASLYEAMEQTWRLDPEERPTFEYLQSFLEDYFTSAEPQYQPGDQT
T12 sequence (Q16620 32-822): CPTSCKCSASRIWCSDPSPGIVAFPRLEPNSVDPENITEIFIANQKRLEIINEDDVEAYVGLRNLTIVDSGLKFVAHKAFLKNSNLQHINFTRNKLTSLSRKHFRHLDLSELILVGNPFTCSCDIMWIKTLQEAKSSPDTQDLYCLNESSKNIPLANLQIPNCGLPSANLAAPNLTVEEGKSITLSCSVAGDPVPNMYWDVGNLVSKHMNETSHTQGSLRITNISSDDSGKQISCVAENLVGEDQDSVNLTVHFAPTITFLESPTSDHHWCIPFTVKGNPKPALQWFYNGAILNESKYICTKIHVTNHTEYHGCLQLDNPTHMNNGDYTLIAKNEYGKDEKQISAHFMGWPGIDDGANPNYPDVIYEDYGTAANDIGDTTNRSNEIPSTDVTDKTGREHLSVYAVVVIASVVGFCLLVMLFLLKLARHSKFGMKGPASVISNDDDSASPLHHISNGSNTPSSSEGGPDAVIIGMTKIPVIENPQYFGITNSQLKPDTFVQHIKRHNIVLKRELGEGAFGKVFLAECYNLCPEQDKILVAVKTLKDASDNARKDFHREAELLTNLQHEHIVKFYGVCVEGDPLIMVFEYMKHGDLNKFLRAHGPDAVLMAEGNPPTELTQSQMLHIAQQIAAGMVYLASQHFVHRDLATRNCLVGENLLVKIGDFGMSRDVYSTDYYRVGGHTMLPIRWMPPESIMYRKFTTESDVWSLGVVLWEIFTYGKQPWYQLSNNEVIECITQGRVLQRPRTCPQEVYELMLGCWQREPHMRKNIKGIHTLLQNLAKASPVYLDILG
T5 sequence (P27037 20-513): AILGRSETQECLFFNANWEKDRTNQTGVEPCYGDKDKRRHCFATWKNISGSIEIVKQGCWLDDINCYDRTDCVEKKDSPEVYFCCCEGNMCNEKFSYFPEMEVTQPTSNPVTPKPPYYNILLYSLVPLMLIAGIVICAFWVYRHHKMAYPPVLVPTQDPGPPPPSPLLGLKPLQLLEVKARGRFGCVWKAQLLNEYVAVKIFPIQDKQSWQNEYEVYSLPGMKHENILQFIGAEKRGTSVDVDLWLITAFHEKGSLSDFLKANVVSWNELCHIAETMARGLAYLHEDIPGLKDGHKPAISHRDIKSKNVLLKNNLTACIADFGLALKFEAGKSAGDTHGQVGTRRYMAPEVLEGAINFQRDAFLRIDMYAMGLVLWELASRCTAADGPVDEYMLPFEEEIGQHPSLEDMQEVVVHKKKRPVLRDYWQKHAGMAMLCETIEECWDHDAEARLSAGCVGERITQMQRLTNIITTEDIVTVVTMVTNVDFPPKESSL
T1 sequence (P00519 whole entry): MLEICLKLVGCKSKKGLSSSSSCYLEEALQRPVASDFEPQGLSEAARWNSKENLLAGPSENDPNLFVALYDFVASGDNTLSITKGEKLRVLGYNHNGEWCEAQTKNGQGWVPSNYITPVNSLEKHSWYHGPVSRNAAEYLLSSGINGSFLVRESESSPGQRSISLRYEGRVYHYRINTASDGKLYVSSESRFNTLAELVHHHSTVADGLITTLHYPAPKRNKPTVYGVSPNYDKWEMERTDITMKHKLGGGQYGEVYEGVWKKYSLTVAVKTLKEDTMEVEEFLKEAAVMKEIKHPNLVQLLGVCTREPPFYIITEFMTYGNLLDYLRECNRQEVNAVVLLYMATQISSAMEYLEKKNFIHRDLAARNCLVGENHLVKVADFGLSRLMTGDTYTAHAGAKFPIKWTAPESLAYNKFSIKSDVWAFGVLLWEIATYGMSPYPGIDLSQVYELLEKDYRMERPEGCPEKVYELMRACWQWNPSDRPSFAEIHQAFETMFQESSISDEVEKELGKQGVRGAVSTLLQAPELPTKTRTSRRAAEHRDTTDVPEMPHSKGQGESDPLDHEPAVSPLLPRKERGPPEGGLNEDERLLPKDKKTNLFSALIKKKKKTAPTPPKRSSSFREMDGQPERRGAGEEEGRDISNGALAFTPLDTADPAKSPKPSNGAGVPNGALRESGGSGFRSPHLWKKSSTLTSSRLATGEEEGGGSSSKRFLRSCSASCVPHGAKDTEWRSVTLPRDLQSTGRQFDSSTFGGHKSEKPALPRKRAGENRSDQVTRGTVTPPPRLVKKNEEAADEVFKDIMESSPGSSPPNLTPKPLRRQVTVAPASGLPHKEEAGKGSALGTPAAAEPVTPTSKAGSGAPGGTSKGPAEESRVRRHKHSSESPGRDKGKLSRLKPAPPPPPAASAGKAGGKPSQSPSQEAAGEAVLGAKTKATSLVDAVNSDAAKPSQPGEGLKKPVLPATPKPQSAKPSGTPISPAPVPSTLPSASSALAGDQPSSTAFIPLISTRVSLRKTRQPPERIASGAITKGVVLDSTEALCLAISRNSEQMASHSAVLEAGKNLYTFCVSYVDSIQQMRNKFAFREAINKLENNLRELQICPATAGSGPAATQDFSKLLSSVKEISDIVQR
T10 sequence (P68400 whole entry): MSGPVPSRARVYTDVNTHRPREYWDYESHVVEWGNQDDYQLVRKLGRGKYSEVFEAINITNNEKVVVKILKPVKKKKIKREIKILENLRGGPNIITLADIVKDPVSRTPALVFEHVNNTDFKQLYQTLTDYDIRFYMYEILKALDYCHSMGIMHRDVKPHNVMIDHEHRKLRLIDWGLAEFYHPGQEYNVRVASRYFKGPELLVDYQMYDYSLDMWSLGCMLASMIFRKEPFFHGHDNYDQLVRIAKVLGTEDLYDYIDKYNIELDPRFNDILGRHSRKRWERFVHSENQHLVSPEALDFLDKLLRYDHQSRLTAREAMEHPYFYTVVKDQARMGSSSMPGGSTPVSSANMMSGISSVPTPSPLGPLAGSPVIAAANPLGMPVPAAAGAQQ
T14 sequence (Q9UK32 whole entry): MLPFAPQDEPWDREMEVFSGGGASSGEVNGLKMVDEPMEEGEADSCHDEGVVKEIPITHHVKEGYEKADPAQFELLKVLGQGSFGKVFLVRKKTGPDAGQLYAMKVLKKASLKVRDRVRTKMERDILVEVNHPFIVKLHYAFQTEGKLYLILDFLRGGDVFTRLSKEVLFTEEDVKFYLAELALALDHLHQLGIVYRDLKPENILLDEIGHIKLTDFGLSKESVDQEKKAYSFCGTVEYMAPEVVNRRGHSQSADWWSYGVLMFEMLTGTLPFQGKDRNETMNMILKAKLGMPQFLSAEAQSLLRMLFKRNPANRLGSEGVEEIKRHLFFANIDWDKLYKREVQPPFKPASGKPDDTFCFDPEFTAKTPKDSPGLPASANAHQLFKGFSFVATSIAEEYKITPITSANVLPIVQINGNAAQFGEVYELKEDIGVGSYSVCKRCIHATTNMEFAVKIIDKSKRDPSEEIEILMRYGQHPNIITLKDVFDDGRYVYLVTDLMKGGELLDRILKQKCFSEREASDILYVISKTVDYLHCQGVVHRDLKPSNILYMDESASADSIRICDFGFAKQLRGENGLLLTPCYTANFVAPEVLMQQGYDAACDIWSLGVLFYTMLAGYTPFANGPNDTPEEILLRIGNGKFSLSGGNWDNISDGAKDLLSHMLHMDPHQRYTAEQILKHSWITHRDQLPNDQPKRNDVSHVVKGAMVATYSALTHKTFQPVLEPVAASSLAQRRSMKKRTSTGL

Compound	remaining binding at 1 µM ([1]; ABL1-nonphosphorylated) [%]	remaining binding at 1 µM ([1]; ABL1-phosphorylated) [%]	remaining binding at 1 µM [2] [%]	remaining binding at 1 µM [3] [%]	remaining binding at 1 µM [4] [%]	remaining binding at 1 µM [5] [%]	remaining binding at 1 µM [6] [%]	remaining binding at 1 µM [7] [%]	remaining binding at 1 µM [8] [%]	remaining binding at 1 µM [9] [%]	remaining binding at 1 µM [10] [%]	remaining binding at 1 µM [11] [%]	remaining binding at 1 µM [12] [%]	remaining binding at 1 µM [13] [%]	remaining binding at 1 µM ([14]; RSK4 (Kin.Dom.1-N-terminal)) [%]	remaining binding at 1 µM ([14]; RSK4 (Kin.Dom.2-C-terminal)) [%]	remaining binding at 1 µM [15] [%]
Cc1ccc(C(=O)Nc2ccc(CN3CCN(C)CC3)c(C(F)(F)F)c2)cc1C#Cc1cnc2c(Nc3cnn(C)c3)cccn12 [Example 1, 4-methyl-3-((8-((1-methyl-1H-pyrazol-4-yl)amino)imidazo[1,2-a]pyridin-3-yl)ethynyl)-N-(4-((4-methylpiperazin-1-yl)methyl)-3-(trifluoromethyl)phenyl)benzamide]	1	0	1	0	0	95	2	4	81	25	83	1	0	10	81	59	82
Cc1cn(-c2cc(NC(=O)c3ccc(C)c(C#Cc4cnc5c(Nc6cnn(C)c6)cccn45)c3)cc(C(F)(F)F)c2)cn1 [Example 12, 4-methyl-N-(3-(4-methyl-1H-imidazol-1-yl)-5-(trifluoromethyl)phenyl)-3-((8-((1-methyl-1H-pyrazol-4-yl)amino)imidazo[1,2-a]pyridin-3-yl)ethynyl)benzamide]	1	6	21	47	4	100	14	63	100	82	100	1	16	100	93	68	100
Cc1ccc(NC(=O)C2(C(=O)Nc3ccc(F)cc3)CC2)cc1C#Cc1cnc2c(Nc3cnn(C(C)C)c3)cccn12 [Example 78]	4	56	97	84	80	100	69	99	96	79	100	21	89	95	93	98	100
